Data as given in ChEMBL document CHEMBL1126733, “Orally active, nonpeptide vasopressin V1 antagonists. A novel series of 1-(1-substituted 4-piperidyl)-3,4-dihdyro-2(1H)-quinolinone” (J Med Chem, 1993).
Calls of active or inactive are those of the source. The rule behind the calls is not given here.

Tests used:
Vasopressin V2 receptor = Vasopressin V2 receptor (Rattus norvegicus, UniProt Q00788); experiment: Ability to displace [3H]- Arginine Vasopressin (AVP) from its specific binding sites in rat […]
Vasopressin V1a receptor = Vasopressin V1a receptor (Rattus norvegicus, UniProt P30560); experiment: Ability to displace [3H]- Arginine Vasopressin (AVP) from its specific binding sites in rat liver (V1 receptor)
[1] = biological target: Vasopressin V1a receptor (Rattus norvegicus) (UniProt P30560); experiment: Inhibition dose for AVP (30 milliunits/kg, iv) induced vasoconstriction when orally administarted; format: functional, organism-based
[2] = biological target: Vasopressin V1a receptor (Rattus norvegicus) (UniProt P30560); conditions: Artery; 22 uM
Description: Inhibition expressed as percent change in diastolic blood pressure increased by AVP (30 milliunits / kg, iv) before and after oral administration at 22 uM/kg

[3] = biological target: Vasopressin V1a receptor (Rattus norvegicus) (UniProt P30560); conditions: Artery; 290 uM
Description: Inhibition expressed as percent change in diastolic blood pressure increased by AVP (30 milliunits / kg, iv) before and after oral administration at 290 uM/kg

[4] = biological target: Vasopressin V1a receptor (Rattus norvegicus) (UniProt P30560); experiment: Inhibition expressed as percent change in diastolic blood pressure increased by AVP (30 milliunits / kg, iv) before and after oral administration at 79 uM/kg (n=7); format: functional, organism-based; conditions: Artery
[5] = biological target: Vasopressin V1a receptor (Rattus norvegicus) (UniProt P30560); experiment: Inhibition expressed as percent change in diastolic blood pressure increased by AVP (30 milliunits / kg, iv) before and after oral administration at 76 uM/kg (n=4); format: functional, organism-based; conditions: Artery
[6] = biological target: Vasopressin V1a receptor (Rattus norvegicus) (UniProt P30560); experiment: Inhibition expressed as percent change in diastolic blood pressure increased by AVP (30 milliunits / kg, iv) before and after oral administration at 270 uM/kg; format: functional, organism-based; conditions: Artery
[7] = biological target: Vasopressin V1a receptor (Rattus norvegicus) (UniProt P30560); experiment: Inhibition expressed as percent change in diastolic blood pressure increased by AVP (30 milliunits / kg, iv) before and after oral administration at 23 uM/kg; format: functional, organism-based; conditions: Artery
[8] = biological target: Vasopressin V1a receptor (Rattus norvegicus) (UniProt P30560); experiment: Inhibition expressed as percent change in diastolic blood pressure increased by AVP (30 milliunits / kg, iv) before and after oral administration at 21 uM/kg; format: functional, organism-based; conditions: Artery
[9] = biological target: Vasopressin V1a receptor (Rattus norvegicus) (UniProt P30560); experiment: Inhibition expressed as percent change in diastolic blood pressure increased by AVP (30 milliunits / kg, iv) before and after oral administration at 20 uM/kg); No effect; format: functional, organism-based; conditions: Artery

Chain of Vasopressin V1a receptor (Rattus norvegicus) (P30560 whole entry, looked up): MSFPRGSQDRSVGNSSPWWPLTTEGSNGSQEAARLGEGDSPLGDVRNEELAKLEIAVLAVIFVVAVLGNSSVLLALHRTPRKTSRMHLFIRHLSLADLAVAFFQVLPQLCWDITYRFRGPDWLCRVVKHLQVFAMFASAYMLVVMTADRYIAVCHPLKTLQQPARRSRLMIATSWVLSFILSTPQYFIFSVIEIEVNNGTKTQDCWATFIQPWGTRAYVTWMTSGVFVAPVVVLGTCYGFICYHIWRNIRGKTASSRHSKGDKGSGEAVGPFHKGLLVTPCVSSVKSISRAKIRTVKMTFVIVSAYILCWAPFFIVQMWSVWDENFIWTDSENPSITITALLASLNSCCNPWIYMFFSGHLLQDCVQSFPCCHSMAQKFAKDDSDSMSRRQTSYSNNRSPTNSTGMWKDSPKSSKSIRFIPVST
Chain of Vasopressin V1a receptor (P30560 whole entry): as the sequence (P30560 whole entry, looked up) above
Chain of Vasopressin V2 receptor (Q00788 whole entry): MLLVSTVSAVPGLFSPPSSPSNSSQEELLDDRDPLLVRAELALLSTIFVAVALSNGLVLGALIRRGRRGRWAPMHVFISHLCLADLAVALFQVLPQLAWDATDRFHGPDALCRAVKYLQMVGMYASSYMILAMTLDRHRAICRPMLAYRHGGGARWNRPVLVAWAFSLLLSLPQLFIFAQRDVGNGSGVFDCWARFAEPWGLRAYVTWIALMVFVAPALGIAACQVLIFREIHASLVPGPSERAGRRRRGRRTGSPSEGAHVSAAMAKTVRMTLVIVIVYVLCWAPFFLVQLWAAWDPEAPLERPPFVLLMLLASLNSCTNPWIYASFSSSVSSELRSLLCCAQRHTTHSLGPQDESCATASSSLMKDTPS

Compound | IC50 (Vasopressin V2 receptor) | IC50 (Vasopressin V1a receptor) | further results
Cc1cccc(C(=O)N2CCC(N3C(=O)CCc4ccccc43)CC2)c1 | > 100 µM | 1.3 µM | –
Cc1ccccc1C(=O)N1CCC(N2C(=O)CCc3ccccc32)CC1 | > 100 µM | 8.4 µM | –
CCCCc1ccc(C(=O)N2CCC(N3C(=O)CCc4ccccc43)CC2)cc1 | 83 µM | 0.35 µM | –
CC(=O)NCCCOc1ccc(C(=O)N2CCC(N3C(=O)CCc4ccccc43)CC2)cc1 | > 100 µM | 0.44 µM | ID50 [1]: 4.4 µmol/kg; inhibition [2]: 93%
O=C(c1ccc(Cl)cc1)N1CCC(N2C(=O)CCc3ccccc32)CC1 | 78 µM | 1.2 µM | –
CCCCCCOc1ccc(C(=O)N2CCC(N3C(=O)CCc4ccccc43)CC2)cc1 | 54 µM | 1.5 µM | –
Cc1ccc(C(=O)N2CCC(N3C(=O)CCc4ccccc43)CC2)cc1 | > 100 µM | 0.5 µM | inhibition [3]: 23%
O=C(c1ccc(F)cc1)N1CCC(N2C(=O)CCc3ccccc32)CC1 | > 100 µM | 1.4 µM | –
O=C(c1ccc(Br)cc1)N1CCC(N2C(=O)CCc3ccccc32)CC1 | 73 µM | 0.5 µM | –
O=C(c1ccccc1)N1CCC(N2C(=O)CCc3ccccc32)CC1 | > 50 µM | 1.9 µM | –
COC(=O)NCCCOc1ccc(C(=O)N2CCC(N3C(=O)CCc4ccccc43)CC2)cc1 | > 100 µM | 0.36 µM | –
O=C1CCc2ccccc2N1C1CCN(Cc2ccccc2)CC1 | > 100 µM | > 100 µM | –
O=C(c1ccco1)N1CCC(N2C(=O)CCc3ccccc32)CC1 | > 100 µM | 11 µM | –
CC(=O)N(C)CCCOc1ccc(C(=O)N2CCC(N3C(=O)CCc4ccccc43)CC2)cc1 | > 100 µM | 0.54 µM | –
O=C(c1cccs1)N1CCC(N2C(=O)CCc3ccccc32)CC1 | > 100 µM | 2.5 µM | –
CN(C)c1ccc(C(=O)N2CCC(N3C(=O)CCc4ccccc43)CC2)cc1 | > 100 µM | 0.47 µM | –
O=C(c1ccccc1Cl)N1CCC(N2C(=O)CCc3ccccc32)CC1 | > 100 µM | 9.9 µM | –
COC(=O)c1ccc(C(=O)N2CCC(N3C(=O)CCc4ccccc43)CC2)cc1 | > 100 µM | 3.5 µM | –
O=C(c1ccccc1[N+](=O)[O-])N1CCC(N2C(=O)CCc3ccccc32)CC1 | > 100 µM | 8.4 µM | –

Compound | IC50 (Vasopressin V2 receptor) | IC50 (Vasopressin V1a receptor) | further results
COc1ccc(C(=O)N2CCC(N3C(=O)CCc4ccccc43)CC2)cc1 | > 100 µM | 0.62 µM | –
N#Cc1ccc(C(=O)N2CCC(N3C(=O)CCc4ccccc43)CC2)cc1 | > 100 µM | 3.1 µM | –
CC(=O)NCCCCCCCCOc1ccc(C(=O)N2CCC(N3C(=O)CCc4ccccc43)CC2)cc1 | > 100 µM | 0.3 µM | –
CCOc1ccc(C(=O)N2CCC(N3C(=O)CCc4ccccc43)CC2)cc1 | > 100 µM | 0.21 µM | inhibition [4]: 75%
Nc1ccc(C(=O)N2CCC(N3C(=O)CCc4ccccc43)CC2)cc1 | > 100 µM | 3.7 µM | –
NCCCCCCOc1ccc(C(=O)N2CCC(N3C(=O)CCc4ccccc43)CC2)cc1 | > 100 µM | 0.1 µM | –
CCCOc1ccc(C(=O)N2CCC(N3C(=O)CCc4ccccc43)CC2)cc1 | > 100 µM | 0.32 µM | inhibition [5]: 65%
CC(=O)Nc1ccc(C(=O)N2CCC(N3C(=O)CCc4ccccc43)CC2)cc1 | > 100 µM | 2.8 µM | –
O=C(c1ccc(O)cc1)N1CCC(N2C(=O)CCc3ccccc32)CC1 | > 100 µM | 1.3 µM | –
O=C(c1cnccn1)N1CCC(N2C(=O)CCc3ccccc32)CC1 | > 100 µM | 26 µM | –
CCCc1ccc(C(=O)N2CCC(N3C(=O)CCc4ccccc43)CC2)cc1 | > 100 µM | 0.33 µM | inhibition [6]: 86%
O=C(c1cccc(Cl)c1)N1CCC(N2C(=O)CCc3ccccc32)CC1 | > 100 µM | 4.4 µM | –
CC(=O)Oc1ccccc1C(=O)N1CCC(N2C(=O)CCc3ccccc32)CC1 | > 100 µM | 1.4 µM | –
O=CNCCCCOc1ccc(C(=O)N2CCC(N3C(=O)CCc4ccccc43)CC2)cc1 | > 100 µM | 0.25 µM | –
NC(=O)c1ccc(C(=O)N2CCC(N3C(=O)CCc4ccccc43)CC2)cc1 | > 100 µM | 11 µM | –
CCC(=O)NCCCOc1ccc(C(=O)N2CCC(N3C(=O)CCc4ccccc43)CC2)cc1 | > 100 µM | 0.78 µM | –
NCCCCCOc1ccc(C(=O)N2CCC(N3C(=O)CCc4ccccc43)CC2)cc1 | > 100 µM | 0.28 µM | –
O=C(c1ccncc1)N1CCC(N2C(=O)CCc3ccccc32)CC1 | > 100 µM | 37 µM | –
NCCCOc1ccc(C(=O)N2CCC(N3C(=O)CCc4ccccc43)CC2)cc1 | > 100 µM | 0.75 µM | –

Compound | IC50 (Vasopressin V2 receptor) | IC50 (Vasopressin V1a receptor) | further results
CN1CCC(N2C(=O)CCc3ccccc32)CC1 | > 50 µM | > 100 µM | –
O=C(c1cccc([N+](=O)[O-])c1)N1CCC(N2C(=O)CCc3ccccc32)CC1 | > 100 µM | 3.1 µM | –
O=C(c1ccc([N+](=O)[O-])cc1)N1CCC(N2C(=O)CCc3ccccc32)CC1 | > 100 µM | 2 µM | –
CCc1ccc(C(=O)N2CCC(N3C(=O)CCc4ccccc43)CC2)cc1 | 80 µM | 0.5 µM | –
CC(=O)NCCOc1ccc(C(=O)N2CCC(N3C(=O)CCc4ccccc43)CC2)cc1 | > 100 µM | 0.42 µM | ID50 [1]: 7.7 µmol/kg; inhibition [7]: 80%
CC(=O)NCCCCCCOc1ccc(C(=O)N2CCC(N3C(=O)CCc4ccccc43)CC2)cc1 | > 100 µM | 0.12 µM | –
O=CNCCCOc1ccc(C(=O)N2CCC(N3C(=O)CCc4ccccc43)CC2)cc1 | > 100 µM | 0.24 µM | –
CC(=O)NCCCCCOc1ccc(C(=O)N2CCC(N3C(=O)CCc4ccccc43)CC2)cc1 | > 100 µM | 0.16 µM | ID50 [1]: 4.7 µmol/kg; inhibition [8]: 81%
CC(=O)Oc1cccc(C(=O)N2CCC(N3C(=O)CCc4ccccc43)CC2)c1 | > 100 µM | 3.7 µM | –
CC(=O)Oc1ccc(C(=O)N2CCC(N3C(=O)CCc4ccccc43)CC2)cc1 | > 100 µM | – | –
O=C(O)c1ccc(C(=O)N2CCC(N3C(=O)CCc4ccccc43)CC2)cc1 | > 100 µM | > 100 µM | –
NCCCCCCCCOc1ccc(C(=O)N2CCC(N3C(=O)CCc4ccccc43)CC2)cc1 | 44 µM | 0.068 µM | inhibition [9]: inactive
NCCOc1ccc(C(=O)N2CCC(N3C(=O)CCc4ccccc43)CC2)cc1 | > 100 µM | 2 µM | –
CCCCOc1ccc(C(=O)N2CCC(N3C(=O)CCc4ccccc43)CC2)cc1 | > 100 µM | 0.42 µM | –
O=C(c1cccc(O)c1)N1CCC(N2C(=O)CCc3ccccc32)CC1 | > 100 µM | 6.3 µM | –
O=C(Cc1ccccc1)N1CCC(N2C(=O)CCc3ccccc32)CC1 | > 100 µM | 12 µM | –
O=C(c1ccccc1O)N1CCC(N2C(=O)CCc3ccccc32)CC1 | > 100 µM | 1.5 µM | –
NCCCCOc1ccc(C(=O)N2CCC(N3C(=O)CCc4ccccc43)CC2)cc1 | > 100 µM | 0.33 µM | –
CC(=O)NCCCCOc1ccc(C(=O)N2CCC(N3C(=O)CCc4ccccc43)CC2)cc1 | > 100 µM | 0.21 µM | ID50 [1]: 5.3 µmol/kg; inhibition [8]: 78%
